Measurements as given in PubChem BioAssay AID1963972 (Molecular Pharmacology Branch, DTP, NCI, 2024).
Several values for one entry are separate records, joined by “and”; a condition that tells them apart may be missing. Equal values may be shown once.

System: 945468-187-T-J2-PDC spheroids viability
Test: Anticancer human tumor 945468-187-T-J2-PDC patient-derived rectal carcinoma cell line growth inhibition [PI3K]
Details: spheroids with HUVEC and MSC; for viability, T/C: stronger effect = lower value
Method in brief: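 Tumor cells grown as multi-cell spheroids with HUVEC endothelial cells and MSC fibroblast-like stroma were treated with targeted agents combined with inavolisib, alpelisib, duvelisib or copanlisib. Doses fell in half-log steps from near clinical Cmax, else from 10 microM. Viability was measured.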

[1] = curve of first compound, second compound 0.00316 µM
[2] = curve of first compound, second compound 0.01 µM
[3] = curve of first compound, second compound 0.0316 µM
[4] = curve of first compound, second compound 0.1 µM
[5] = curve of first compound, second compound 0.316 µM
[6] = curve of first compound, second compound 1 µM
[7] = second compound 0.00316 µM, first compound 0.0316 µM
[8] = second compound 0.00316 µM, first compound 0.1 µM
[9] = second compound 0.00316 µM, first compound 0.316 µM
[10] = second compound 0.00316 µM, first compound 1 µM
[11] = second compound 0.00316 µM, first compound 3.16 µM
[12] = second compound 0.00316 µM, first compound 10 µM
[13] = second compound 0.01 µM, first compound 0.0316 µM
[14] = second compound 0.01 µM, first compound 0.1 µM
[15] = second compound 0.01 µM, first compound 0.316 µM
[16] = second compound 0.01 µM, first compound 1 µM
[17] = second compound 0.01 µM, first compound 3.16 µM
[18] = second compound 0.01 µM, first compound 10 µM
[19] = second compound 0.0316 µM, first compound 0.0316 µM
[20] = second compound 0.0316 µM, first compound 0.1 µM
[21] = second compound 0.0316 µM, first compound 0.316 µM
[22] = second compound 0.0316 µM, first compound 1 µM
[23] = second compound 0.0316 µM, first compound 3.16 µM
[24] = second compound 0.0316 µM, first compound 10 µM
[25] = second compound 0.1 µM, first compound 0.0316 µM
[26] = second compound 0.1 µM, first compound 0.1 µM
[27] = second compound 0.1 µM, first compound 0.316 µM
[28] = second compound 0.1 µM, first compound 1 µM
[29] = second compound 0.1 µM, first compound 3.16 µM
[30] = second compound 0.1 µM, first compound 10 µM
[31] = second compound 0.316 µM, first compound 0.0316 µM
[32] = second compound 0.316 µM, first compound 0.1 µM
[33] = second compound 0.316 µM, first compound 0.316 µM
[34] = second compound 0.316 µM, first compound 1 µM
[35] = second compound 0.316 µM, first compound 3.16 µM
[36] = second compound 0.316 µM, first compound 10 µM
[37] = second compound 1 µM, first compound 0.0316 µM
[38] = second compound 1 µM, first compound 0.1 µM
[39] = second compound 1 µM, first compound 0.316 µM
[40] = second compound 1 µM, first compound 1 µM
[41] = second compound 1 µM, first compound 3.16 µM
[42] = second compound 1 µM, first compound 10 µM
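Further: spheroids exposed to compounds for seven days before reading.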

CNC(=O)c1ccc(N2C(=S)N(c3ccc(C#N)c(C(F)(F)F)c3)C(=O)C2(C)C)cc1F
viability, T/C (compound 0.0316 µM): 92.1% [middle of 4 runs] | viability, T/C (compound 0.1 µM): 106% (2×) and 93.2% and 121% | viability, T/C (compound 0.316 µM): 89% [middle of 4 runs] | viability, T/C (compound 1 µM): 85.3% [middle of 4 runs] | viability, T/C (compound 3.16 µM): 91.6% [middle of 4 runs] | IC50 (curve of compound): > 10 µM

CC(C)NCC(C(=O)N1CCN(c2ncnc3c2C(C)CC3O)CC1)c1ccc(Cl)cc1 (stereo not given) + COc1c(OCCCN2CCOCC2)ccc2c3n(c(=NC(=O)c4cnc(N)nc4)nc12)CCN3
IC50 [1]: > 10 µM | IC50 [2]: > 10 µM | IC50 [3]: > 10 µM | IC50 [4]: > 10 µM | IC50 [5]: < 0.0316 µM | IC50 [6]: < 0.0316 µM | viability, T/C [7]: 88.9% | viability, T/C [8]: 110% | viability, T/C [9]: 129% | viability, T/C [10]: 106% | viability, T/C [11]: 110% | viability, T/C [12]: 90.3% | viability, T/C [13]: 104% | viability, T/C [14]: 109% | viability, T/C [15]: 111% | viability, T/C [16]: 87.7% | viability, T/C [17]: 90.2% | viability, T/C [18]: 86.6% | viability, T/C [19]: 83.6% | viability, T/C [20]: 125% | viability, T/C [21]: 112% | viability, T/C [22]: 103% | viability, T/C [23]: 84% | viability, T/C [24]: 101% | viability, T/C [25]: 87.2% | viability, T/C [26]: 106% | viability, T/C [27]: 120% | viability, T/C [28]: 80.5% | viability, T/C [29]: 82.3% | viability, T/C [30]: 86.1% | viability, T/C [31]: 47.1% | viability, T/C [32]: 51.6% | viability, T/C [33]: 39.7% | viability, T/C [34]: 44.6% | viability, T/C [35]: 45.4% | viability, T/C [36]: 36.8% | viability, T/C [37]: 21% | viability, T/C [38]: 21.3% | viability, T/C [39]: 23.3% | viability, T/C [40]: 20.9% | viability, T/C [41]: 24.6% | viability, T/C [42]: 21.6%

CC1(C)CCC(CN2CCN(c3ccc(C(=O)NS(=O)(=O)c4ccc(NCC5CCOCC5)c([N+](=O)[O-])c4)c(Oc4cnc5[nH]ccc5c4)c3)CC2)=C(c2ccc(Cl)cc2)C1 + CC(Nc1ccc2c(c1)OCCn1cc(N3C(=O)OCC3C(F)F)nc1-2)C(N)=O
IC50 [1]: 7.88 µM | IC50 [2]: > 10 µM | IC50 [3]: 7.6 µM | IC50 [4]: 7.73 µM | IC50 [5]: 6.74 µM | IC50 [6]: > 10 µM | viability, T/C [7]: 113% | viability, T/C [8]: 100% | viability, T/C [9]: 96.6% | viability, T/C [10]: 118% | viability, T/C [11]: 93.2% | viability, T/C [12]: 38.8% | viability, T/C [13]: 94.2% | viability, T/C [14]: 104% | viability, T/C [15]: 118% | viability, T/C [16]: 98.3% | viability, T/C [17]: 89.4% | viability, T/C [18]: 51.7% | viability, T/C [19]: 96.1% | viability, T/C [20]: 113% | viability, T/C [21]: 95.3% | viability, T/C [22]: 88.9% | viability, T/C [23]: 101% | viability, T/C [24]: 34.6% | viability, T/C [25]: 98.9% | viability, T/C [26]: 92.2% | viability, T/C [27]: 92.4% | viability, T/C [28]: 92.5% | viability, T/C [29]: 98.6% | viability, T/C [30]: 37.1% | viability, T/C [31]: 88.1% | viability, T/C [32]: 89% | viability, T/C [33]: 84.3% | viability, T/C [34]: 89.6% | viability, T/C [35]: 83.1% | viability, T/C [36]: 32.7% | viability, T/C [37]: 69.2% | viability, T/C [38]: 81.7% | viability, T/C [39]: 94.8% | viability, T/C [40]: 66% | viability, T/C [41]: 77.8% | viability, T/C [42]: 52.3%

Cc1nc(NC(=O)N2CCCC2C(N)=O)sc1-c1ccnc(C(C)(C)C(F)(F)F)c1 (stereo not given)
viability, T/C (compound 0.0316 µM): 95.8% [middle of 8 runs] | viability, T/C (compound 0.1 µM): 97.5% [middle of 8 runs] | IC50 (compound alone, run of 04/24/2023): > 10 µM

Cn1ncnc1[C@H]1c2n[nH]c(=O)c3cc(F)cc(c23)N[C@@H]1c1ccc(F)cc1 + CC(Nc1ccc2c(c1)OCCn1cc(N3C(=O)OCC3C(F)F)nc1-2)C(N)=O
IC50 [1]: > 0.1 µM | IC50 [2]: > 0.1 µM | IC50 [3]: > 0.1 µM | IC50 [4]: > 0.1 µM | IC50 [5]: > 0.1 µM | IC50 [6]: > 0.1 µM | viability, T/C (second compound 0.00316 µM, first compound 0.000316 µM): 103% | viability, T/C (second compound 0.00316 µM, first compound 0.001 µM): 114% | viability, T/C (second compound 0.00316 µM, first compound 0.00316 µM): 105% | viability, T/C (second compound 0.00316 µM, first compound 0.01 µM): 86.6% | viability, T/C [7]: 92.6% | viability, T/C [8]: 99.7% | viability, T/C (second compound 0.01 µM, first compound 0.000316 µM): 131% | viability, T/C (second compound 0.01 µM, first compound 0.001 µM): 99.1% | viability, T/C (second compound 0.01 µM, first compound 0.00316 µM): 107% | viability, T/C (second compound 0.01 µM, first compound 0.01 µM): 84.5% | viability, T/C [13]: 110% | viability, T/C [14]: 123% | viability, T/C (second compound 0.0316 µM, first compound 0.000316 µM): 129% | viability, T/C (second compound 0.0316 µM, first compound 0.001 µM): 139% | viability, T/C (second compound 0.0316 µM, first compound 0.00316 µM): 100% | viability, T/C (second compound 0.0316 µM, first compound 0.01 µM): 98.8% | viability, T/C [19]: 96.3% | viability, T/C [20]: 123% | viability, T/C (second compound 0.1 µM, first compound 0.000316 µM): 87.6% | viability, T/C (second compound 0.1 µM, first compound 0.001 µM): 112% | viability, T/C (second compound 0.1 µM, first compound 0.00316 µM): 96.8% | viability, T/C (second compound 0.1 µM, first compound 0.01 µM): 89.1% | viability, T/C [25]: 118% | viability, T/C [26]: 102% | viability, T/C (second compound 0.316 µM, first compound 0.000316 µM): 82.3% | viability, T/C (second compound 0.316 µM, first compound 0.001 µM): 103% | viability, T/C (second compound 0.316 µM, first compound 0.00316 µM): 100% | viability, T/C (second compound 0.316 µM, first compound 0.01 µM): 88% | viability, T/C [31]: 99.7% | viability, T/C [32]: 99.6% | viability, T/C (second compound 1 µM, first compound 0.000316 µM): 77.1% | viability, T/C (second compound 1 µM, first compound 0.001 µM): 84.3% | viability, T/C (second compound 1 µM, first compound 0.00316 µM): 75.9% | viability, T/C (second compound 1 µM, first compound 0.01 µM): 84.9% | viability, T/C [37]: 79.2% | viability, T/C [38]: 77.2%
